Data on 33 compounds can be found in US10683269B2 (MISSION THERAPEUTICS LIMITED, priority 2016, dated 2020).

Structures are written as SMILES.

The target of this assay is T1, USP7 (Homo sapiens, UniProt Q93009).
T1 construct: The USP7 construct was PCR amplified and cloned into a pFLAG-CMV-6a vector (Sigma-Aldrich) with an N-terminal FLAG tag; made in house; host or cells: HEK293T
T1 sequence (Q93009 whole entry): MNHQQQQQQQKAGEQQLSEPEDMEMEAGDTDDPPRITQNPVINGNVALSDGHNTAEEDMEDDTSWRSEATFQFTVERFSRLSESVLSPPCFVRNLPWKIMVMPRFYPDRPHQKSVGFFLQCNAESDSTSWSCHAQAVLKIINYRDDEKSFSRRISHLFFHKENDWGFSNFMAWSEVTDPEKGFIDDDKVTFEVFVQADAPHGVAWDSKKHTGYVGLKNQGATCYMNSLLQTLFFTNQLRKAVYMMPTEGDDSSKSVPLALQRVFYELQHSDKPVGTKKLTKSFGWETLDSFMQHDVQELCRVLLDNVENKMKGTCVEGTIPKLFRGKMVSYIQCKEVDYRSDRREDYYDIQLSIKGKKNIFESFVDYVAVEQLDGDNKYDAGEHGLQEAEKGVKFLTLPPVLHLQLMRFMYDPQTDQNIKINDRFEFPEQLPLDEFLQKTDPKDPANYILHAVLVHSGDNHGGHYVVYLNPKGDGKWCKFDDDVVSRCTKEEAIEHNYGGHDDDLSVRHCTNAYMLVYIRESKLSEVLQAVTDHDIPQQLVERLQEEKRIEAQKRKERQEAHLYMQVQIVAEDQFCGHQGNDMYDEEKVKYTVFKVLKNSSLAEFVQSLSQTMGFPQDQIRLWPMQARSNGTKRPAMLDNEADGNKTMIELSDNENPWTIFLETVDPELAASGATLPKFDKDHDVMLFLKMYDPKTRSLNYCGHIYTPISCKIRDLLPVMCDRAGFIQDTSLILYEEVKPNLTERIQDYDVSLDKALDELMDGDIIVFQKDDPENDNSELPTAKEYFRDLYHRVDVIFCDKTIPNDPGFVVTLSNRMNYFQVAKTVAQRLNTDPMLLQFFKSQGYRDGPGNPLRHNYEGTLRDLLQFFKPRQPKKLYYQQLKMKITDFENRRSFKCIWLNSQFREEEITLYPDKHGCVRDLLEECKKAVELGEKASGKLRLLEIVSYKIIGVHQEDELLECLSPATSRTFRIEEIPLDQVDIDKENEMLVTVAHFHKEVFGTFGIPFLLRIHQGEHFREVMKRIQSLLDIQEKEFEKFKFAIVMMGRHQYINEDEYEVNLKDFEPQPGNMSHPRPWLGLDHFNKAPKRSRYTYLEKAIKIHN
The assay is described as follows: USP7 biochemical IC50 assay (fluorescence polarisation, TAMRA labelled peptide linked to ubiquitin via an iso-peptide bond). The following applies: 30 min pre-incubation of enzyme and compound, read after 2 hr incubation at room temperature, read-out: IC50 range. The method, then:
In Vitro USP7 Inhibition Assay
Expression and Purification of USP7
The USP7 construct was PCR amplified and cloned into a pFLAG-CMV-6a vector (Sigma-Aldrich) with an N-terminal FLAG tag. HEK293T cells were transfected with FLAG-USP7 using TransIT-LT1 transfection reagent (Mirus) according to the manufacturer's instructions. Cells were harvested 40 hours after transfection. […] The resin was washed two times with low salt buffer plus protease inhibitors (complete mini, Roche) and phosphatase inhibitors (PhosSTOP mini, Roche) and one time with high salt buffer (20 mM Tris, pH 7.5, 500 mM NaCl, 0.5 mM EDTA, 5 mM beta-mercaptoethanol, protease inhibitors (complete mini, Roche) and phosphatase inhibitors (PhosSTOP mini, Roche). To elute the bound USP7, elution buffer (10 mM Tris, pH 7.5, 150 mM NaCl, 0.5 mM EDTA, 10% glycerol, 0.5% NP40, 5 mM beta-mercaptoethanol, 0.15 mg/ml 3×FLAG peptide (Sigma-Aldrich)) was added to the resin and incubated at 4° C. for 2.5 hours rotating. The resin was centrifuged at 4000 rpm for 30 seconds, and the supernatant containing purified FLAG-USP7 was removed and stored at −80° C.
USP7 Biochemical IC50 Assay
A typical 8-point dilution series would be 100, 30, 10, 3, 1, 0.3, 0.1, 0.03 μM final. […] Either 1 μl of 50% DMSO or diluted compound was added to the plate. USP7 was diluted in reaction buffer (20 mM Tris, pH 7.5, 100 mM NaCl, 0.05% Tween 20, 0.5 mg/ml BSA, 5 mM—beta mercaptoethanol) to the equivalent of 0.0025 μl/well and 10 μl of diluted USP7 was added to the compound. Enzyme and compound were incubated for 30 min at room temp. Reactions were initiated by the addition of 50 nM of TAMRA labelled peptide linked to ubiquitin via an iso-peptide bond as fluorescence polarisation substrate. Reactions were read immediately after addition of substrate and following a 2 hr incubation at room temperature. Readings were performed on a Pherastar Plus (BMG Labtech). λ Excitation 540 nm; λ Emission 590 nm.
(In general: Polarisation of emitted light reports the rotation of a fluorescent probe.)
By IC50 is commonly meant the concentration needed to halve the response being measured. For the compound `N#CN1Cc2cccc(-c3cccc(C(=O)Nc4ccccc4)c3)c2C1` [Example 75, 3-(2-cyanoisoindolin-4-yl)-N-phenylbenzamide], the IC50 fell in the range of 1 to 10 µM.

Consider `C[C@@H](NC(=O)c1cccc(-c2cccc3c2CN(C#N)C3)c1)c1ccccc1` [Example 76, (R)-3-(2-cyanoisoindolin-4-yl)-N-(1-phenylethyl)benzamide], for which the IC50 was in the range of 1 to 10 µM. Then `N#CN1Cc2cccc(-c3ccccc3C(=O)NCCN)c2C1` [Example 77, N-(2-aminoethyl)-2-(2-cyanoisoindolin-4-yl)benzamide], with 1 to 10 µM; and `N#CN1Cc2cccc(-c3ccccc3C(=O)N3CCNCC3)c2C1` [Example 78, 4-(2-(piperazine-1-carbonyl)phenyl)isoindoline-2-carbonitrile], with 1 to 10 µM. Consider `N#CN1Cc2cccc(-c3ccnc(C(=O)NCc4ccccc4)c3)c2C1` [Example 79, N-benzyl-4-(2-cyanoisoindolin-4-yl)picolinamide], for which the IC50 is 1 to 10 µM. As for `N#CN1Cc2cccc(NC(=O)c3cccc(NC(=O)C4CC4)c3)c2C1` [Example 80, N-(2-cyanoisoindolin-4-yl)-3-(cyclopropanecarboxamido)benzamide], the IC50 fell in the range of 1 to 10 µM.

As to `N#CN1Cc2cccc(NC(=O)c3ccc(-c4cccnc4)cc3)c2C1` [Example 81, N-(2-cyanoisoindolin-4-yl)-4-(pyridin-3-yl)benzamide], the IC50 was in the range of 1 to 10 µM.

Turning to `N#CN1Cc2cccc(NC(=O)c3ccc(-c4ccncc4)cc3)c2C1` [Example 82, N-(2-cyanoisoindolin-4-yl)-4-(pyridin-4-yl)benzamide], the IC50 lay within 1 to 10 µM. Under `Cc1ccccc1-c1cc(C(=O)Nc2cccc3c2CN(C#N)C3)[nH]n1` [Example 83, N-(2-cyanoisoindolin-4-yl)-3-(o-tolyl)-1H-pyrazole-5-carboxamide] stands 10 to 30 µM; under `N#CN1Cc2cccc(NC(=O)c3csc(-c4ccccc4)n3)c2C1` [Example 84, N-(2-cyanoisoindolin-4-yl)-2-phenylthiazole-4-carboxamide], 10 to 30 µM; under `COc1cc2cc(C(=O)Nc3cccc4c3CN(C#N)C4)[nH]c2cn1` [Example 85, N-(2-cyanoisoindolin-4-yl)-5-methoxy-1H-pyrrolo[2,3-c]pyridine-2-carboxamide], 1 to 10 µM.

As to `N#CN1Cc2cccc(NC(=O)c3cc(-c4cnccn4)[nH]n3)c2C1` [Example 86, N-(2-cyanoisoindolin-4-yl)-5-(pyrazin-2-yl)-1H-pyrazole-3-carboxamide], the IC50 was 1 to 10 µM.

Regarding `N#CN1Cc2cccc(NC(=O)c3ccc(=O)n(Cc4ccccc4)c3)c2C1` [Example 87, 1-benzyl-N-(2-cyanoisoindolin-4-yl)-6-oxo-1,6-dihydropyridine-3-carboxamide], the IC50 fell in the range of 1 to 10 µM.

On to `COCc1ccc(C(=O)Nc2cccc3c2CN(C#N)C3)cc1` [Example 88, N-(2-cyanoisoindolin-4-yl)-4-(methoxymethyl)benzamide], for which the IC50 lay within 10 to 30 µM. For the compound `COC(=O)Nc1cccc(C(=O)Nc2cccc3c2CN(C#N)C3)c1` [Example 89, methyl (3-((2-cyanoisoindolin-4-yl)carbamoyl)phenyl)carbamate], the IC50 lay in the range of 1 to 10 µM. As to `N#CN1Cc2cccc(NC(=O)c3cccc(NC(=O)c4ccccc4)c3)c2C1` [Example 90, 3-benzamido-N-(2-cyanoisoindolin-4-yl)benzamide], the IC50 lay in the range of 1 to 10 µM.

With `N#CN1Cc2cccc(NC(=O)c3ccc(CNC(=O)OCc4ccccc4)cc3)c2C1` [Example 91, benzyl (4-((2-cyanoisoindolin-4-yl)carbamoyl)benzyl carbamate], the half-inhibitory concentration (IC50) lay within 1 to 10 µM. For the compound `N#CN1Cc2cccc(NC(=O)c3ccc(S(=O)(=O)Nc4ccccc4)cc3)c2C1` [Example 92, N-(2-cyanoisoindolin-4-yl)-4-(N-phenylsulfamoyl)benzamide], the IC50 lay in the range of 1 to 10 µM. As to `N#CN1Cc2cccc(NC(=O)c3ccc(N4CCOCC4)s3)c2C1` [Example 93, N-(2-cyanoisoindolin-4-yl)-5-morpholinothiophene-2-carboxamide], the IC50 was in the range of 1 to 10 µM.

On to `CN1CCC(C(=O)Nc2ccc3c(c2)CN(C#N)C3)C1` (stereo not drawn) [Example 94, N-(2-cyanoisoindolin-5-yl)-1-methylpyrrolidine-3-carboxamide], for which the concentration for half-maximal inhibition (IC50) was in the range of 1 to 10 µM.

Turning to `N#CN1Cc2cccc(C(=O)NCc3ccccc3)c2C1` [Example 95, N-benzyl-2-cyanoisoindoline-4-carboxamide], the IC50 lay within 10 to 30 µM. Under `CC(=O)Nc1ccc2c(c1-c1ccccc1)CN(C#N)C2` [Example 96, N-(2-cyano-4-phenylisoindolin-5-yl)acetamide] stands 1 to 10 µM; under `Cn1cc(-c2nnc(-c3ccccc3)c3c2CN(C#N)C3)cn1` [Example 97, 1-(1-methyl-1H-pyrazol-4-yl)-4-phenyl-5,7-dihydro-6H-pyrrolo[3,4-c]pyridazine-6-carbonitrile], 10 to 30 µM. Under `COC(=O)c1cc2c(c(-c3ccccc3)c1)CN(C#N)C2` [Example 98, methyl 2-cyano-7-phenylisoindoline-5-carboxylate] stands 1 to 10 µM; under `N#CN1Cc2ncnc(N3CCN(c4ccc(F)cc4F)CC3)c2C1` [Example 99, 4-(4-(2,4-difluorophenyl)piperazin-1-yl)-5H-pyrrolo[3,4-d]pyrimidine-6(7H)-carbonitrile], 10 to 30 µM.

`N#CN1Cc2ncnc(N3Cc4ccccc4C3)c2C1` [Example 100, 4-(isoindolin-2-yl)-5,7-dihydro-6H-pyrrolo[3,4-c]pyrimidine-6-carbonitrile]: the IC50 was 1 to 10 µM. Regarding `N#CN1Cc2ncnc(N3CCC(Oc4cccnc4)CC3)c2C1` [Example 101, 4-(4-(pyridin-3-yloxy)piperidin-1-yl)-5,7-dihydro-6H-pyrrolo[3,4-c]pyrimidine-6-carbonitrile], the IC50 is 10 to 30 µM. For `COc1cccc(OC2CCN(c3ncnc4c3CN(C#N)C4)CC2)c1` [Example 102, 4-(4-(3-methoxyphenoxy)piperidin-1-yl)-5,7-dihydro-6H-pyrrolo[3,4-d]pyrimidine-6-carbonitrile], the IC50 lay within 1 to 10 µM. Under `N#CN1Cc2ncnc(N3CCC(Oc4ccccc4C(N)=O)CC3)c2C1` [Example 103, 2-((1-(6-cyano-6,7-dihydro-5H-pyrrolo[3,4-d]pyrimidin-4-yl)piperidin-4-yl)oxy)benzamide] stands 10 to 30 µM; under `CC(=O)Nc1nc2c(c(-c3ccccc3)n1)CN(C#N)C2` [Example 104, N-(6-cyano-4-phenyl-6,7-dihydro-5H-pyrrolo[3,4-c]pyrimidin-2-yl)acetamide], 1 to 10 µM.

`CC(=O)Nc1nc2c(c(-c3cccc(C#N)c3)n1)CN(C#N)C2` [Example 105, N-(6-cyano-4-(3-cyanophenyl)-6,7-dihydro-5H-pyrrolo[3,4-c]pyrimidin-2-yl)acetamide]: the concentration for half-maximal inhibition (IC50) was 1 to 10 µM. In the case of `CC(=O)Nc1nc2c(c(-c3cccc(OC(F)(F)F)c3)n1)CN(C#N)C2` [Example 106, N-(6-cyano-4-(3-(trifluoromethoxy)phenyl)-6,7-dihydro-5H-pyrrolo[3,4-d]pyrimidin-2-yl)acetamide], the IC50 was in the range of 1 to 10 µM. Under `CC(=O)Nc1nc2c(c(-c3cnn(C)c3)n1)CN(C#N)C2` [Example 107, N-(6-cyano-4-(1-methyl-1H-pyrazol-4-yl)-6,7-dihydro-5H-pyrrolo[3,4-d]pyrimidin-2-yl)acetamide] stands 10 to 30 µM.
